We go through two compounds from ChEMBL document CHEMBL1131706, “S1319: a novel beta2-andrenoceptor agonist from a marine sponge Dysidea sp” (Bioorg Med Chem Lett, 1999).

The species entered for one assay is Cavia porcellus. Nature of the assay: Compound was tested for the ability to relax histamine induced contraction of isolated trachea. The assay is classed as functional.
The target of assay [1] is Beta-1 adrenergic receptor (Homo sapiens, UniProt P08588).
Description: Compound was tested for its binding affinity to human Beta-1 adrenergic receptor by using the radioligand [3H]CGP-12177
Assay [2] addresses Beta-2 adrenergic receptor (Homo sapiens, UniProt P07550).
Description: Compound was tested for its binding affinity to human Beta-2 adrenergic receptor by using the radioligand [3H]CGP-12177

Sequence of Beta-1 adrenergic receptor (P08588 whole entry): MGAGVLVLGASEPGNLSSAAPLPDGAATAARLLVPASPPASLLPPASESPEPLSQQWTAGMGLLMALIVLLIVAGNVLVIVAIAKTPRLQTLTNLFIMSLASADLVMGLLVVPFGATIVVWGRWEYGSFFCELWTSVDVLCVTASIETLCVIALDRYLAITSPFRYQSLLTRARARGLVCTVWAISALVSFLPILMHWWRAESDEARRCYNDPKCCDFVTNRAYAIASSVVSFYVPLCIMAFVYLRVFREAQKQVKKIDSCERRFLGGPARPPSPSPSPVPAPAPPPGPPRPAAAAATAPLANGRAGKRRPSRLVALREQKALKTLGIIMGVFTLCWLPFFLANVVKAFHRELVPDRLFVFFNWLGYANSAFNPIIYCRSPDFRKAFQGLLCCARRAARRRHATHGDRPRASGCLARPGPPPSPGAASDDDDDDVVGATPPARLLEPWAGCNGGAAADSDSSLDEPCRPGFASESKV
Sequence of Beta-2 adrenergic receptor (P07550 whole entry): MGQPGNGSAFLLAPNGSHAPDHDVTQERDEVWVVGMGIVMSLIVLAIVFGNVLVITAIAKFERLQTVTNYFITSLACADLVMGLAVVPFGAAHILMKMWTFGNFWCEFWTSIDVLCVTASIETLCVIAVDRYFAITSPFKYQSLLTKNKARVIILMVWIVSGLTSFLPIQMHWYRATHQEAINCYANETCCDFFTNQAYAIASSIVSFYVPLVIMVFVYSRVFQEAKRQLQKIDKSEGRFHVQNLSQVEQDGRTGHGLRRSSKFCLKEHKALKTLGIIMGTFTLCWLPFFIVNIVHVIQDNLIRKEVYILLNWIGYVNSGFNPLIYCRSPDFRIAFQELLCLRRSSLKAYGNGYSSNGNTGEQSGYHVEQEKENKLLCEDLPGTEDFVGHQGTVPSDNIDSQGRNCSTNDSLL

As to `CNCC(O)c1ccc(O)c2nc(O)sc12` (centres undefined), in the assay listed under Cavia porcellus, the pD2 was 10.6. In addition, the Kd – broadly, the equilibrium constant for the complex coming apart – in assay [1] amounted to 0.12 µM; in assay [2], 0.051 µM.

For the compound `CNCC(O)c1ccc(OC)c2c1sc(=O)n2C` (centres undefined), in the assay listed under Cavia porcellus, the pD2 is given as 7.08.
